{"source": "patent US4897502A", "about": "“Process for making solid polyhalotriaryl phosphate esters” (priority 1987, dated 1990)", "origin": "cited, not measured here"}
{"details": "Table I", "units": {"Hildebrand Solubility Parameter": "SI", "Hansen Dispersion Component": "SI"}}
{"molecule": "CCCCC(CC)CO", "note": "(centres unmarked) [2-ethylhexanol]", "Hildebrand Solubility Parameter": 20.8}
{"molecule": "CCCCCCCCCCO", "note": "[Example 1-decanol, 1-decanol]", "Hansen Dispersion Component": 15.4, "Hildebrand Solubility Parameter": 20.5}
{"molecule": "CCCCCCCO", "note": "[Example 1-heptanol, 1-heptanol]", "Hansen Dispersion Component": 15.1}
{"molecule": "CCCCCCO", "note": "[Example 1-hexanol, 1-hexanol]", "Hansen Dispersion Component": 15.0}
{"molecule": "CCCCCCCCO", "note": "[Example 1-octanol, 1-octanol]", "Hansen Dispersion Component": 15.2, "Hildebrand Solubility Parameter": 21.1}
{"molecule": "CCCCCO", "note": "[Example 1-pentanol, 1-pentanol]", "Hansen Dispersion Component": 14.4}
{"molecule": "CCC(C)O", "note": "(centres unmarked) [Example 2-butanol, 2-butanol]", "Hansen Dispersion Component": 14.5, "Hildebrand Solubility Parameter": 22.7}
{"molecule": "CCCCCC(C)O", "note": "(centres unmarked) [Example 2-heptanol, 2-heptanol]", "Hansen Dispersion Component": 14.6}
{"molecule": "CCCC(C)O", "note": "(centres unmarked) [Example 2-pentanol, 2-pentanol]", "Hansen Dispersion Component": 15.0, "Hildebrand Solubility Parameter": 22.2}
{"molecule": "CCCCC(O)CC", "note": "(centres unmarked) [Example 3-heptanol, 3-heptanol]", "Hansen Dispersion Component": 14.6, "Hildebrand Solubility Parameter": 20.2}
{"molecule": "amyl alcohol [amyl alcohol (pract.)]", "Hansen Dispersion Component": 14.5}
{"details": "comparison liquids"}
{"molecule": "CC(C)O", "note": "[Example 2-propanol, 2-propanol]", "Hansen Dispersion Component": 7.6}
{"molecule": "CO", "note": "[methanol]", "Hansen Dispersion Component": 7.4}
{"details": "100 g ethanol, 0° C.", "units": {"magnesium chloride dissolving in 100 g ethanol": "g"}}
{"molecule": "[Cl-].[Cl-].[Mg+2]", "note": "[magnesium chloride]", "magnesium chloride dissolving in 100 g ethanol": 3.61}
{"details": "100 g methanol, 0° C.", "units": {"magnesium chloride dissolving in 100 g methanol": "g"}}
{"molecule": "[Cl-].[Cl-].[Mg+2]", "note": "[magnesium chloride]", "magnesium chloride dissolving in 100 g methanol": 15.5}
